Reference: patent US10065990B2, “Cyclic peptide compound, and preparation method, pharmaceutical composition and use thereof” (HANGZHOU GUANYU BIO-MEDICAL CO., LTD, priority 2013, dated 2018)
Read-outs that look alike come from different tables or passages of the source. Values belong to the compound of their own block, whether it stands above or below them.

How the values were obtained:
HDAC7 = target: T1, HDAC7 (Homo sapiens, UniProt Q8WUI4); assay: HDAC biochemical activity measurement (fluorescent substrate deacetylation);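 note: fluorogenic deacetylation assay using acetyl-lysine substrate at 20 µM, enzyme and compound incubated 30 min at 37 °C, then developer added, fluorescence read at 360/460 nm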; details: HDAC7; 37° C. 30 minutes
T1 sequence (Q8WUI4 1-952): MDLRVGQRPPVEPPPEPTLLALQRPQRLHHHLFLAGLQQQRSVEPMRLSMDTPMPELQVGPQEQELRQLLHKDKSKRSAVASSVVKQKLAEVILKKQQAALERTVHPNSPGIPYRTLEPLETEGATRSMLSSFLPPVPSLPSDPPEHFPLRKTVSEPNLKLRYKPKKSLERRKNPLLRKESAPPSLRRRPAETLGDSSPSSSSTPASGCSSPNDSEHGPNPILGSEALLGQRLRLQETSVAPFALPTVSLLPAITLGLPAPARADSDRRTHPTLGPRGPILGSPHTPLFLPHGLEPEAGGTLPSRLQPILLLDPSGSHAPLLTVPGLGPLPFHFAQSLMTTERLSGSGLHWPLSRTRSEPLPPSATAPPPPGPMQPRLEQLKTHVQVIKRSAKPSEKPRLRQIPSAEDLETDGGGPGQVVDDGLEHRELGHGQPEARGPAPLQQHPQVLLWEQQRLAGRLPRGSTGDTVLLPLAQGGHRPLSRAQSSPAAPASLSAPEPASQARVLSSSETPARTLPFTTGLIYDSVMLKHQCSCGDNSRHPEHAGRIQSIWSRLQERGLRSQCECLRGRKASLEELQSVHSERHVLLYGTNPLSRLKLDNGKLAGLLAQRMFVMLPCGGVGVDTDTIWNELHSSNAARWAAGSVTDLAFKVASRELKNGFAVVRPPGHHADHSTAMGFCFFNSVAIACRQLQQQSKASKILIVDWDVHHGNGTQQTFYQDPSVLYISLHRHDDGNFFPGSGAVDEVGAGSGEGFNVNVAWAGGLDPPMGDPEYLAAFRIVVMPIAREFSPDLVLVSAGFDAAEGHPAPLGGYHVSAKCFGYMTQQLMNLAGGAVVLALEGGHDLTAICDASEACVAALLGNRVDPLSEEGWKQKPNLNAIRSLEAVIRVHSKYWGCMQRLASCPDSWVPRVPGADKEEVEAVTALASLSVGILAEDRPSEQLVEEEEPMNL

[1] = system: HT1080 (human fibrosarcoma cells); assay: MTT cancer cell growth inhibition; type: cell-based; details: Homo sapiens, HT-1080, 72 h, MTT, 72 hours incubation, read-out: GI50 HT1
How it was run: (§1)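 Following overnight attachment of 1500 cells per well, each line was exposed to test drug (final 10^−5 to 10^−10 M) for 72 h in a humidified 37° C., 5% CO2 incubator. Four hours with MTT, DMSO dissolution of formazan, and a 570 nm reading yielded viability data used for GI50.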

[2] = system: A549 (human lung cancer cells); assay: MTT cancer cell growth inhibition; type: cell-based; details: Homo sapiens, A549, 72 h, MTT, 72 hours incubation, read-out: GI50 A54
How it was run: as §1

[3] = system: KBM-5 (human chronic myelogenous leukemia); assay: MTT cancer cell growth inhibition; type: cell-based; details: Homo sapiens, KBM5, 72 h, MTT, 72 hours incubation, KBM-5 cells; read-out: GI50 KBM-5
How it was run: as §1

[4] = system: U937 (human leukemia cells); assay: MTT cancer cell growth inhibition; type: cell-based; details: Homo sapiens, U-937, 72 h, MTT, 72 hours incubation, read-out: GI50 U93
How it was run: as §1

[5] = system: H1975 (non-small cell lung adenocarcinoma); assay: MTT cancer cell growth inhibition; type: cell-based; details: Homo sapiens, NCI-H1975, 72 h, MTT, 72 hours incubation, H1975 cells; read-out: GI50 H1975
How it was run: as §1

[6] = system: N-87 (human gastric cancer cells); assay: MTT cancer cell growth inhibition; type: cell-based; details: Homo sapiens, 72 h, MTT, 72 hours incubation, N-87 cells; read-out: GI50 N-87
How it was run: as §1

[7] = system: K562 (human leukemia cells); assay: MTT cancer cell growth inhibition; type: cell-based; details: Homo sapiens, K562, 72 h, MTT, 72 hours incubation, K562 cells; read-out: GI50 K562
How it was run: as §1

[8] = system: SGC-7901 (human gastric cancer cells); assay: MTT cancer cell growth inhibition; type: cell-based; details: Homo sapiens, SGC-7901, 72 h, MTT, 72 hours incubation, SGC-7901 cells; read-out: GI50 SGC-7901
How it was run: as §1

[9] = system: BGC-823 (human gastric cancer cells); assay: MTT cancer cell growth inhibition; type: cell-based; details: Homo sapiens, BGC-823, 72 h, MTT, 72 hours incubation, read-out: GI50 BG
How it was run: as §1

[10] = system: HCC827 (human non-small cell lung cancer cells); assay: MTT cancer cell growth inhibition; type: cell-based; details: Homo sapiens, HCC827, 72 h, MTT, 72 hours incubation, HCC827 cells; read-out: GI50 HCC827
How it was run: as §1

[11] = system: MCF-7 (human breast cancer cells); assay: MTT cancer cell growth inhibition; type: cell-based; details: Homo sapiens, MCF7, 72 h, 72 hours incubation, read-out: GI50 MCF
How it was run: as §1

[12] = system: MOLT-4 (human acute lymphoblastic leukemia cells); assay: MTT cancer cell growth inhibition; type: cell-based; details: Homo sapiens, MOLT-4, 72 h, MTT, 72 hours incubation, read-out: GI50 Mol
How it was run: as §1

[13] = system: PANC-1 (Pac-1, human pancreatic cancer cells); assay: MTT cancer cell growth inhibition; type: cell-based; details: Homo sapiens, PANC-1, 72 h, MTT, 72 hours incubation, read-out: GI50 PAN
How it was run: as §1

[14] = system: lncap (prostate cancer cells); assay: MTT cancer cell growth inhibition; type: cell-based; details: Homo sapiens, LNCaP, 72 h, MTT, 72 hours incubation, read-out: GI50 lnca
How it was run: as §1

[15] = system: KBM5-T315I (human chronic myelogenous leukemia); assay: MTT cancer cell growth inhibition; type: cell-based; details: Homo sapiens, 72 h, MTT, 72 hours incubation, KBM5-T315I cells; read-out: GI50 KBM5-T315I
How it was run: as §1

[16] = system: MDA-MB-231 (breast cancer cells); assay: MTT cancer cell growth inhibition; type: cell-based; details: Homo sapiens, MDA-MB-231, 72 h, read-out: GI50 MDA-MB-231, MTT, 72 hours incubation, MDA-MB-231 cells
How it was run: as §1

[17] = system: Huh-7 (human hepatoma cells); assay: MTT cancer cell growth inhibition; type: cell-based; details: Homo sapiens, Huh-7, 72 h, MTT, 72 hours incubation, Huh-7 cells; read-out: GI50 Huh-7
How it was run: as §1

[18] = system: DU145 (human prostate cancer cells); assay: MTT cancer cell growth inhibition; type: cell-based; details: Homo sapiens, DU-145, 72 h, MTT, 72 hours incubation, read-out: GI50 Du1
How it was run: as §1

[19] = system: Bel-7402 (human hepatoma cells); assay: MTT cancer cell growth inhibition; type: cell-based; details: Homo sapiens, Bel-7402, 72 h, MTT, 72 hours incubation, Bel-7402 cells; read-out: GI50 Bel-7402
How it was run: as §1

[20] = system: Hela (human cervical cancer cells); assay: MTT cancer cell growth inhibition; type: cell-based; details: Homo sapiens, HeLa, 72 h, MTT, 72 hours incubation, read-out: GI50 Hela
How it was run: as §1

Structure (SMILES): C/C=C1\NC(=O)c2ccc(F)c(n2)CNC(=O)C[C@@H](/C=C/CCS)OC(=O)[C@H](CCCCNC(=O)OCC2c3ccccc3-c3ccccc32)NC1=O [Compound 122]
- IC50 HDAC7 (HDAC7): no activity
- GI50 [1]: 30 nM
- GI50 [2]: 110 nM
- GI50 [3]: 38 nM
- GI50 [4]: 110 nM
- GI50 [5]: 55 nM
- GI50 [6]: 48 nM
- GI50 [7]: 46 nM
- GI50 [8]: 61 nM
- GI50 [9]: 20 nM
- GI50 [10]: 32 nM
- GI50 [11]: 30 nM
- GI50 [12]: 100 nM
- GI50 [13]: 30 nM
- GI50 [14]: 30 nM
- GI50 [15]: 26 nM
- GI50 [16]: 32 nM
- GI50 [17]: 91 nM
- GI50 [18]: 80 nM
- GI50 [19]: 49 nM
- GI50 [20]: 50 nM

Structure (SMILES): C/C=C1\NC(=O)c2cc(SC)cc(n2)CNC(=O)C[C@@H](/C=C/CCS)OC(=O)[C@H](C)NC1=O [Compound 233]
- IC50 HDAC7 (HDAC7): no activity
- GI50 ([1]; HT1080 cells): 70 nM
- GI50 ([2]; A549 cells): 20 nM
- GI50 [3]: 97 nM
- GI50 ([4]; U937 cells): 80 nM
- GI50 [5]: 51 nM
- GI50 [6]: 35 nM
- GI50 [7]: 24 nM
- GI50 [8]: 51 nM
- GI50 ([9]; BGC-823 cells): 60 nM
- GI50 [10]: 81 nM
- GI50 ([11]; MCF-7 cells): 20 nM
- GI50 ([12]; MOLT-4 cells): 30 nM
- GI50 ([13]; PANC-1 cells): 20 nM
- GI50 ([14]; lncap cells): 20 nM
- GI50 [15]: 46 nM
- GI50 [16]: 36 nM
- GI50 [17]: 41 nM
- GI50 ([18]; DU145 cells): 50 nM
- GI50 [19]: 81 nM
- GI50 ([20]; Hela cells): 50 nM

Results, then the compound that gave them:

- IC50 HDAC7 (HDAC7): no activity
- GI50 [1]: 80 nM
- GI50 [2]: 20 nM
- GI50 [3]: 61 nM
- GI50 [4]: 30 nM
- GI50 [5]: 39 nM
- GI50 [6]: 37 nM
- GI50 [7]: 38 nM
- GI50 [8]: 28 nM
- GI50 [9]: 30 nM
- GI50 [10]: 82 nM
- GI50 [11]: 30 nM
- GI50 [12]: 30 nM
- GI50 [13]: 80 nM
- GI50 [14]: 30 nM
- GI50 [15]: 34 nM
- GI50 [16]: 37 nM
- GI50 [17]: 37 nM
- GI50 [18]: 30 nM
- GI50 [19]: 82 nM
- GI50 [20]: 60 nM
Structure (SMILES): C=C1NC(=O)c2ccc(F)c(n2)CNC(=O)C[C@@H](/C=C/CCSC(C)=O)OC(=O)[C@H](C(C)C)NC1=O [Compound 86]

- IC50 HDAC7 (HDAC7): no activity
- GI50 [1]: 70 nM
- GI50 [2]: 50 nM
- GI50 [3]: 69 nM
- GI50 [4]: 50 nM
- GI50 [5]: 15 nM
- GI50 [6]: 25 nM
- GI50 [7]: 47 nM
- GI50 [8]: 57 nM
- GI50 [9]: 60 nM
- GI50 [10]: 34 nM
- GI50 [11]: 10 nM
- GI50 [12]: 90 nM
- GI50 [13]: 70 nM
- GI50 [14]: 190 nM
- GI50 [15]: 21 nM
- GI50 [16]: 67 nM
- GI50 [17]: 51 nM
- GI50 [18]: 80 nM
- GI50 [19]: 43 nM
- GI50 [20]: 70 nM
Structure (SMILES): C=C1NC(=O)c2cccc(n2)CNC(=O)C[C@@H](/C=C/CCS)OC(=O)[C@H](C)NC1=O [Compound 139]

- IC50 HDAC7 (HDAC7): no activity
- GI50 ([1]; HT1080 cells): 20 nM
- GI50 ([2]; A549 cells): 40 nM
- GI50 [3]: 33 nM
- GI50 ([4]; U937 cells): 30 nM
- GI50 [5]: 29 nM
- GI50 [6]: 38 nM
- GI50 [7]: 81 nM
- GI50 [8]: 41 nM
- GI50 ([9]; BGC-823 cells): 40 nM
- GI50 [10]: 13 nM
- GI50 ([11]; MCF-7 cells): 30 nM
- GI50 ([12]; MOLT-4 cells): 60 nM
- GI50 ([13]; PANC-1 cells): 30 nM
- GI50 ([14]; lncap cells): 20 nM
- GI50 [15]: 38 nM
- GI50 [16]: 71 nM
- GI50 [17]: 59 nM
- GI50 ([18]; DU145 cells): 20 nM
- GI50 [19]: 72 nM
- GI50 ([20]; Hela cells): 70 nM
Structure (SMILES): C/C=C1\NC(=O)c2ccc(SC)c(n2)CCNC(=O)C[C@@H](/C=C/CCSC(C)=O)OC(=O)[C@H](C(C)C)NC1=O [Compound 225]
